Data published in ChEMBL document CHEMBL1201862, “PubChem BioAssay data set” (2004).
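Assay format: 96-well plates, 48-hour exposure. The concentration for 50% growth inhibition is given as GI50.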 Active and inactive are the calls of the source. No stated cut-off is given here; in the data, active = GI50 up to about 1.1 µM and inactive = higher.

Tests used:
Assay in all cases: DTP human tumour cell line panel, 48 h
NCI-H522 = system: NCI-H522
MDA-MB-231 = system: MDA-MB-231
DU-145 = system: DU-145
MDA-MB-435 = system: MDA-MB-435
MCF7 = system: MCF7
SK-OV-3 = system: SK-OV-3
SF-539 = system: SF-539
NCI-H460 = system: NCI-H460
SK-MEL-2 = system: SK-MEL-2
SF-295 = system: SF-295
UO-31 = system: UO-31
SW-620 = system: SW-620
MOLT-4 = system: MOLT-4
SK-MEL-28 = system: SK-MEL-28
UACC-62 = system: UACC-62
CCRF-CEM = system: CCRF-CEM
SK-MEL-5 = system: SK-MEL-5
RPMI-8226 = system: RPMI-8226
CAKI-1 = system: CAKI-1
MDA-N = system: MDA-N

Measured: GI50

C(=N\N=C1NCCCCN1)/c1ccc2ccccc2c1
inactive: NCI-H522 26.7 µM | MDA-MB-231 31.4 µM | DU-145 67.3 µM | MDA-MB-435 17.2 µM | MCF7 29.4 µM | SK-OV-3 27.2 µM | SF-539 20.4 µM | NCI-H460 22.3 µM | SK-MEL-2 21.9 µM | SF-295 21.3 µM | UO-31 36.8 µM | SW-620 22.7 µM | MOLT-4 23.5 µM | SK-MEL-28 21.3 µM | UACC-62 31 µM | CCRF-CEM 33.7 µM | SK-MEL-5 17.4 µM | RPMI-8226 27.5 µM

COc1cc2c(cc1C)NC(=O)/C2=C/c1cccnc1
inactive: NCI-H522 13 µM | DU-145 12.3 µM | MDA-MB-435 12.9 µM | MCF7 5.74 µM | SK-OV-3 7.03 µM | SF-539 26.9 µM | NCI-H460 9.02 µM | CAKI-1 10.1 µM | SK-MEL-2 16 µM | SF-295 12.5 µM | SW-620 20.8 µM | MOLT-4 1.23 µM | SK-MEL-28 45.9 µM | CCRF-CEM 7.01 µM | SK-MEL-5 11 µM

c1ccc2c(c1)ccc1nc(-c3ccc4c(c3)OCO4)c3c(c12)CCCC3
inactive: MDA-MB-231 4.48 µM | MDA-MB-435 27.5 µM | MCF7 24.5 µM | SK-OV-3 43.5 µM | SF-539 12.5 µM | NCI-H460 11.6 µM | CAKI-1 45.4 µM | SK-MEL-2 23.2 µM | SF-295 12.2 µM | UO-31 20.9 µM | SW-620 29.2 µM | MOLT-4 8.26 µM | MDA-N 37.9 µM | SK-MEL-28 30.2 µM | UACC-62 18.8 µM | CCRF-CEM 25.9 µM | RPMI-8226 15.5 µM

CS(=O)(=O)Nc1ccc2c(c1)N(S(C)(=O)=O)CC2CCl (centres undefined)
inactive: NCI-H522 > 100 µM | MDA-MB-231 > 100 µM | DU-145 > 100 µM | MDA-MB-435 > 100 µM | MCF7 > 100 µM | SF-539 > 100 µM | NCI-H460 > 100 µM | CAKI-1 > 100 µM | SK-MEL-2 > 100 µM | SF-295 > 100 µM | UO-31 > 100 µM | SW-620 > 100 µM | MOLT-4 > 100 µM | SK-MEL-28 > 100 µM | UACC-62 > 100 µM | CCRF-CEM > 100 µM | SK-MEL-5 > 100 µM | RPMI-8226 > 100 µM

COc1ccc2c3c([nH]c2c1)[C@H](C=C(C)C)N1C(=O)[C@@H]2CCCN2C(=O)[C@@H]1C3 [FUMITREMORGIN]
inactive: NCI-H522 > 100 µM | MDA-MB-231 70.8 µM | DU-145 > 100 µM | MDA-MB-435 > 100 µM | MCF7 > 100 µM | SK-OV-3 29.6 µM | SF-539 29.6 µM | NCI-H460 > 100 µM | CAKI-1 > 100 µM | SK-MEL-2 > 100 µM | SF-295 51.3 µM | UO-31 > 100 µM | SW-620 > 100 µM | MOLT-4 > 100 µM | SK-MEL-28 22.2 µM | UACC-62 87.5 µM | CCRF-CEM > 100 µM | RPMI-8226 > 100 µM

CCOC(=O)C1(C(=O)OCC)OC(C)=NC1(C(=O)OC)C(=O)OC
inactive: MDA-MB-231 > 100 µM | DU-145 > 100 µM | MDA-MB-435 > 100 µM | MCF7 > 61.5 µM | SK-OV-3 > 100 µM | SF-539 > 100 µM | NCI-H460 > 100 µM | CAKI-1 > 100 µM | SK-MEL-2 > 100 µM | SF-295 > 100 µM | UO-31 > 100 µM | SW-620 > 100 µM | MOLT-4 > 87.1 µM | MDA-N > 100 µM | SK-MEL-28 > 100 µM | UACC-62 > 100 µM | CCRF-CEM > 100 µM | SK-MEL-5 > 53.7 µM

Fc1ccc(C2NC(=S)NC3=C2CCOc2c3ccc3ccccc23)cc1 (centres undefined)
inactive: NCI-H522 35 µM | DU-145 > 100 µM | MDA-MB-435 8.53 µM | MCF7 15.7 µM | SK-OV-3 82.4 µM | SF-539 > 100 µM | NCI-H460 30.7 µM | CAKI-1 16.6 µM | SK-MEL-2 79.6 µM | SF-295 34.4 µM | UO-31 26.7 µM | SW-620 39.1 µM | MOLT-4 19.9 µM | CCRF-CEM 54 µM | SK-MEL-5 11.3 µM | RPMI-8226 19.8 µM

CC1(C)C2C=CC1(C)C1(CC2)OCCO1 (centres undefined)
inactive: MDA-MB-231 > 100 µM | DU-145 > 100 µM | MDA-MB-435 > 100 µM | MCF7 > 100 µM | SK-OV-3 > 100 µM | SF-539 > 100 µM | NCI-H460 > 100 µM | SK-MEL-2 > 100 µM | SF-295 > 100 µM | UO-31 > 100 µM | SW-620 > 100 µM | MOLT-4 > 100 µM | MDA-N > 100 µM | SK-MEL-28 > 100 µM | UACC-62 > 100 µM | CCRF-CEM > 100 µM | RPMI-8226 > 100 µM

Cc1n[nH]c(=O)n1/N=C/c1ccc(Cl)cc1
inactive: NCI-H522 21.7 µM | DU-145 47.2 µM | MDA-MB-435 > 100 µM | SK-OV-3 83.4 µM | SF-539 78.2 µM | NCI-H460 59.7 µM | CAKI-1 52.2 µM | SF-295 46 µM | UO-31 61.1 µM | SW-620 68.7 µM | MOLT-4 54.3 µM | MDA-N > 100 µM | SK-MEL-28 > 100 µM | UACC-62 56.9 µM | CCRF-CEM 31.1 µM | RPMI-8226 > 100 µM

O=C(CCCn1ccnc1[N+](=O)[O-])NCCn1ccnc1[N+](=O)[O-]
inactive: NCI-H522 > 100 µM | DU-145 > 100 µM | MDA-MB-435 > 100 µM | MCF7 > 100 µM | SK-OV-3 > 100 µM | SF-539 > 100 µM | NCI-H460 > 100 µM | CAKI-1 > 100 µM | SK-MEL-2 > 100 µM | SF-295 > 100 µM | UO-31 > 100 µM | SW-620 > 100 µM | MOLT-4 > 100 µM | MDA-N > 100 µM | SK-MEL-28 > 100 µM | UACC-62 > 100 µM | CCRF-CEM > 100 µM | SK-MEL-5 > 100 µM | RPMI-8226 > 100 µM

O=c1cc(NNCc2ccccc2)[nH]c(=O)[nH]1
inactive: MDA-MB-231 > 100 µM | DU-145 > 100 µM | MDA-MB-435 > 100 µM | MCF7 > 100 µM | SF-539 > 100 µM | NCI-H460 > 100 µM | CAKI-1 > 100 µM | SF-295 > 100 µM | UO-31 74 µM | SW-620 > 100 µM | MOLT-4 69.2 µM | MDA-N > 100 µM | SK-MEL-28 > 100 µM | CCRF-CEM > 100 µM | SK-MEL-5 > 100 µM | RPMI-8226 > 100 µM

COc1ccccc1Cn1[nH]c(=O)c2cc([N+](=O)[O-])ccc21
inactive: NCI-H522 > 100 µM | MDA-MB-231 64.4 µM | DU-145 > 100 µM | MDA-MB-435 43.9 µM | SF-539 > 100 µM | NCI-H460 > 100 µM | CAKI-1 > 100 µM | SK-MEL-2 24.4 µM | UO-31 > 100 µM | SW-620 84.9 µM | MOLT-4 > 100 µM | MDA-N 47.8 µM | SK-MEL-28 > 100 µM | UACC-62 76 µM | CCRF-CEM > 100 µM | SK-MEL-5 > 100 µM | RPMI-8226 > 100 µM

CCOC(=O)Nn1c(C)nnc1CC#N
inactive: NCI-H522 > 100 µM | MDA-MB-231 > 100 µM | DU-145 > 100 µM | MCF7 > 100 µM | SF-539 > 100 µM | NCI-H460 > 100 µM | CAKI-1 > 100 µM | SK-MEL-2 > 100 µM | SF-295 > 100 µM | UO-31 > 100 µM | SW-620 > 100 µM | MOLT-4 > 100 µM | SK-MEL-28 > 100 µM | UACC-62 > 100 µM | SK-MEL-5 > 100 µM | RPMI-8226 > 100 µM

CC1(C)CC(=O)C2=C(C1)OC1(CC2c2ccc(Cl)cc2)CC(c2ccc(Cl)cc2)C2=C(CC(C)(C)CC2=O)O1 (centres undefined)
inactive: NCI-H522 11.3 µM | MDA-MB-231 24.4 µM | DU-145 19.6 µM | MDA-MB-435 8.53 µM | MCF7 12 µM | SK-OV-3 12.1 µM | SF-539 20.5 µM | NCI-H460 14.3 µM | CAKI-1 26.9 µM | SK-MEL-2 18.8 µM | SF-295 22.2 µM | UO-31 13.6 µM | SW-620 20.7 µM | MOLT-4 3.13 µM | SK-MEL-28 15.2 µM | UACC-62 23.6 µM | CCRF-CEM 15.5 µM | SK-MEL-5 14.8 µM | RPMI-8226 9.46 µM

c1ccc(C2C3=C(CCCC3)Nc3nnnn32)cc1 (centres undefined)
inactive: MDA-MB-231 > 100 µM | DU-145 > 100 µM | MDA-MB-435 72.6 µM | MCF7 13.8 µM | SK-OV-3 > 100 µM | SF-539 > 100 µM | NCI-H460 12.9 µM | CAKI-1 > 100 µM | SK-MEL-2 34.4 µM | SF-295 57.4 µM | UO-31 > 100 µM | SW-620 > 100 µM | MOLT-4 53 µM | MDA-N 98.4 µM | UACC-62 56.2 µM | SK-MEL-5 48.9 µM

C[C@@H](CCO)OC1OC(COC(=O)C(C)(C)C)C(OC(=O)C(C)(C)C)C(OC(=O)C(C)(C)C)C1OC(=O)C(C)(C)C (some centres undefined)
inactive: NCI-H522 11.7 µM | MDA-MB-231 3.4 µM | DU-145 > 100 µM | MDA-MB-435 34.5 µM | MCF7 15.1 µM | SK-OV-3 58.7 µM | SF-539 33.4 µM | NCI-H460 16.1 µM | CAKI-1 5.97 µM | SK-MEL-2 43.6 µM | SF-295 4.13 µM | SW-620 51.1 µM | MOLT-4 12.9 µM | SK-MEL-28 21.9 µM | UACC-62 48 µM | CCRF-CEM 33.7 µM | SK-MEL-5 4.97 µM | RPMI-8226 15.5 µM
